Assay results taken from PubChem BioAssay AID2060901 (Molecular Pharmacology Branch, DTP, NCI, 2025).

Tested on: 422866-222-R5-J1-PDC complex spheroids viability
Test: Anticancer human tumor 422866-222-R5-J1-PDC patient-derived pancreatic adenocarcinoma cell line growth inhibition [RAS]
Conditions: for IC50: curve of first compound; for viability, T/C: stronger effect = lower value
Summary of the method: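 Tumour cells grown as complex spheroids with HUVEC endothelial cells and mesenchymal stem cells, treated with RAS pathway inhibitor combinations. Each agent spans half-log steps from near clinical Cmax, or 10 microM where Cmax is unknown.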
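Note: spheroids exposed to compounds for 7 days.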
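Throughout, for viability, T/C: 100% = DMSO vehicle control viability.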

SMILES: CC(=O)OC12COC1CC(O)C1(C)C(=O)C(O)C3=C(C)C(OC(=O)C(O)C(NC(=O)OC(C)(C)C)c4ccccc4)CC(O)(C(OC(=O)c4ccccc4)C21)C3(C)C (centres undefined) + C=CC(=O)N1CCN(c2nc(OCC3CCCN3C)nc3c(F)c(-c4nc(N)cc(C)c4C(F)(F)F)c(Cl)cc23)C(C)C1
- IC50 (second compound 0.00316 µM): < 31.6 nM
- IC50 (second compound 0.01 µM): < 31.6 nM
- IC50 (second compound 0.0316 µM): < 31.6 nM
- IC50 (second compound 0.1 µM): < 31.6 nM
- IC50 (second compound 0.316 µM): < 31.6 nM
- IC50 (second compound 1 µM): < 31.6 nM
- viability, T/C (second compound 0.00316 µM, first compound 0.0316 µM): 19.5%
- viability, T/C (second compound 0.00316 µM, first compound 0.1 µM): 21.1%
- viability, T/C (second compound 0.00316 µM, first compound 0.316 µM): 26.7%
- viability, T/C (second compound 0.00316 µM, first compound 1 µM): 22%
- viability, T/C (second compound 0.00316 µM, first compound 3.16 µM): 19.1%
- viability, T/C (second compound 0.00316 µM, first compound 10 µM): 26%
- viability, T/C (second compound 0.01 µM, first compound 0.0316 µM): 21.5%
- viability, T/C (second compound 0.01 µM, first compound 0.1 µM): 20.8%
- viability, T/C (second compound 0.01 µM, first compound 0.316 µM): 20.4%
- viability, T/C (second compound 0.01 µM, first compound 1 µM): 17.6%
- viability, T/C (second compound 0.01 µM, first compound 3.16 µM): 20.4%
- viability, T/C (second compound 0.01 µM, first compound 10 µM): 19.6%
- viability, T/C (second compound 0.0316 µM, first compound 0.0316 µM): 17.9%
- viability, T/C (second compound 0.0316 µM, first compound 0.1 µM): 20.8%
- viability, T/C (second compound 0.0316 µM, first compound 0.316 µM): 19.3%
- viability, T/C (second compound 0.0316 µM, first compound 1 µM): 17%
- viability, T/C (second compound 0.0316 µM, first compound 3.16 µM): 21.2%
- viability, T/C (second compound 0.0316 µM, first compound 10 µM): 20.9%
- viability, T/C (second compound 0.1 µM, first compound 0.0316 µM): 17.3%
- viability, T/C (second compound 0.1 µM, first compound 0.1 µM): 21%
- viability, T/C (second compound 0.1 µM, first compound 0.316 µM): 18.1%
- viability, T/C (second compound 0.1 µM, first compound 1 µM): 19.2%
- viability, T/C (second compound 0.1 µM, first compound 3.16 µM): 22.5%
- viability, T/C (second compound 0.1 µM, first compound 10 µM): 22.5%
- viability, T/C (second compound 0.316 µM, first compound 0.0316 µM): 15.3%
- viability, T/C (second compound 0.316 µM, first compound 0.1 µM): 17.8%
- viability, T/C (second compound 0.316 µM, first compound 0.316 µM): 19.5%
- viability, T/C (second compound 0.316 µM, first compound 1 µM): 17.6%
- viability, T/C (second compound 0.316 µM, first compound 3.16 µM): 18.4%
- viability, T/C (second compound 0.316 µM, first compound 10 µM): 23.3%
- viability, T/C (second compound 1 µM, first compound 0.0316 µM): 16.6%
- viability, T/C (second compound 1 µM, first compound 0.1 µM): 17.7%
- viability, T/C (second compound 1 µM, first compound 0.316 µM): 22.7%
- viability, T/C (second compound 1 µM, first compound 1 µM): 20%
- viability, T/C (second compound 1 µM, first compound 3.16 µM): 22.3%
- viability, T/C (second compound 1 µM, first compound 10 µM): 22.6%

SMILES: Cc1nc(N2CCC3(CC2)COC(C)C3N)c(CO)nc1Sc1ccnc(N)c1Cl (centres undefined)
- viability, T/C (compound 0.1 µM): 65% [middle of 4 runs]
- viability, T/C (compound 0.316 µM): 51% [middle of 4 runs]
- viability, T/C (compound 1 µM): 52.8% [middle of 4 runs]
- viability, T/C (compound 3.16 µM): 41.1% [middle of 4 runs]
- viability, T/C (compound 10 µM): 43.5% [middle of 4 runs]

SMILES: CCN1CCN(Cc2ccc(Nc3ncc(F)c(-c4cc(F)c5nc(C)n(C(C)C)c5c4)n3)nc2)CC1 + CCn1c(-c2cc(N3CCN(C)CC3)cnc2C(C)OC)c2c3cc(ccc31)-c1csc(n1)CC(NC(=O)C1CC1C)C(=O)N1CCCC(N1)C(=O)OCC(C)(C)C2
- IC50 (second compound 0.000949 µM): < 3.16 nM
- IC50 (second compound 0.003 µM): < 3.16 nM
- IC50 (second compound 0.00949 µM): < 3.16 nM
- IC50 (second compound 0.03 µM): < 3.16 nM
- IC50 (second compound 0.0949 µM): < 3.16 nM
- IC50 (second compound 0.3 µM): < 3.16 nM
- viability, T/C (second compound 0.000949 µM, first compound 0.00316 µM): 34.5%
- viability, T/C (second compound 0.000949 µM, first compound 0.01 µM): 29.8%
- viability, T/C (second compound 0.000949 µM, first compound 0.0316 µM): 26.8%
- viability, T/C (second compound 0.000949 µM, first compound 0.1 µM): 29.4%
- viability, T/C (second compound 0.000949 µM, first compound 0.316 µM): 29.5%
- viability, T/C (second compound 0.000949 µM, first compound 1 µM): 43.6%
- viability, T/C (second compound 0.003 µM, first compound 0.00316 µM): 25.6%
- viability, T/C (second compound 0.003 µM, first compound 0.01 µM): 21.5%
- viability, T/C (second compound 0.003 µM, first compound 0.0316 µM): 21.9%
- viability, T/C (second compound 0.003 µM, first compound 0.1 µM): 22.6%
- viability, T/C (second compound 0.003 µM, first compound 0.316 µM): 25%
- viability, T/C (second compound 0.003 µM, first compound 1 µM): 34.7%
- viability, T/C (second compound 0.00949 µM, first compound 0.00316 µM): 18.7%
- viability, T/C (second compound 0.00949 µM, first compound 0.01 µM): 17.4%
- viability, T/C (second compound 0.00949 µM, first compound 0.0316 µM): 18.3%
- viability, T/C (second compound 0.00949 µM, first compound 0.1 µM): 16.3%
- viability, T/C (second compound 0.00949 µM, first compound 0.316 µM): 23.1%
- viability, T/C (second compound 0.00949 µM, first compound 1 µM): 28.6%
- viability, T/C (second compound 0.03 µM, first compound 0.00316 µM): 18.9%
- viability, T/C (second compound 0.03 µM, first compound 0.01 µM): 22.9%
- viability, T/C (second compound 0.03 µM, first compound 0.0316 µM): 17.6%
- viability, T/C (second compound 0.03 µM, first compound 0.1 µM): 17.3%
- viability, T/C (second compound 0.03 µM, first compound 0.316 µM): 21.8%
- viability, T/C (second compound 0.03 µM, first compound 1 µM): 31.1%
- viability, T/C (second compound 0.0949 µM, first compound 0.00316 µM): 19.7%
- viability, T/C (second compound 0.0949 µM, first compound 0.01 µM): 18.4%
- viability, T/C (second compound 0.0949 µM, first compound 0.0316 µM): 18.8%
- viability, T/C (second compound 0.0949 µM, first compound 0.1 µM): 17.9%
- viability, T/C (second compound 0.0949 µM, first compound 0.316 µM): 24.5%
- viability, T/C (second compound 0.0949 µM, first compound 1 µM): 31.4%
- viability, T/C (second compound 0.3 µM, first compound 0.00316 µM): 17.9%
- viability, T/C (second compound 0.3 µM, first compound 0.01 µM): 19.8%
- viability, T/C (second compound 0.3 µM, first compound 0.0316 µM): 20.9%
- viability, T/C (second compound 0.3 µM, first compound 0.1 µM): 19.1%
- viability, T/C (second compound 0.3 µM, first compound 0.316 µM): 25.9%
- viability, T/C (second compound 0.3 µM, first compound 1 µM): 33.5%
